Measured values: patent publication US7799809B2, “Carboxamide compounds and their use as calpain inhibitors” (Abbott GmbH & Co. KG, priority 2006, dated 2010)

Experiments:
Type in all cases: biochemical
[1] = biological target: T1, cathepsin S (Homo sapiens, UniProt P25774); experiment: Cathepsin S enzyme inhibition in vitro (kinetic fluorescence assay); conditions: recombinant human cathepsin S vs calpain I
T1 construct: purchased Calbiochem 219343; host or cells: E. coli
Outline: (§1)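 Inhibition is measured at room temperature in cysteine-containing MES buffer, pH 6.0, by continuous fluorescence at 460 nm. Cathepsin S (0.5 nM) uses 20 μM Z-Val-Val-Arg-AMC; L (1 nM) and B (0.25 nM) use Z-Phe-Arg-AMC at 2 and 100 μM respectively.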

[2] = biological target: T2, cathepsin B (Homo sapiens, UniProt P07858); experiment: Cathepsin B enzyme inhibition in vitro (kinetic fluorescence assay); conditions: cathepsin B isolated from human liver vs calpain I
T2 construct: cathepsin B—isolated from human liver (Calbiochem #219362); purchased Calbiochem 219362; host or cells: human liver (tissue-derived)
Outline: as §1

[3] = biological target: T3, cathepsin K (Homo sapiens, UniProt P43235); experiment: Cathepsin K enzyme inhibition in vitro (kinetic fluorescence assay); conditions: cathepsin K activated from recombinant human procathepsin K vs calpain I
T3 construct: purchased Calbiochem 342001; host or cells: E. coli
T3 sequence (P43235 115-329): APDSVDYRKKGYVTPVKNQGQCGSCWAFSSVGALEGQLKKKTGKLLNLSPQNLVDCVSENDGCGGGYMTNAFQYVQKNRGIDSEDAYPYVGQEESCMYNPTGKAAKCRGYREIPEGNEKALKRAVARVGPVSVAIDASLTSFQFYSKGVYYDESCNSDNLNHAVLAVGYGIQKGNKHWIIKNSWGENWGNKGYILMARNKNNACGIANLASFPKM

[4] = biological target: T4, cathepsin L (Homo sapiens, UniProt P07711); experiment: Cathepsin L enzyme inhibition in vitro (kinetic fluorescence assay); conditions: cathepsin L isolated from human liver vs calpain I
T4 construct: cathepsin L—isolated from human liver (Calbiochem #219402); purchased Calbiochem 219402; host or cells: human liver (tissue-derived)
T4 sequence (P07711 114-333): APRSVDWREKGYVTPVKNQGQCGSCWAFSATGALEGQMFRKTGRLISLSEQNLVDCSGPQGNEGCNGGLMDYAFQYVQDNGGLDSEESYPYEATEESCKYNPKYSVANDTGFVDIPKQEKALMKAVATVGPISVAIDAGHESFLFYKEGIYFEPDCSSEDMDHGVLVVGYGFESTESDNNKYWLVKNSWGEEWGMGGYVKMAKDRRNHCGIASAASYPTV
Outline: as §1

T1 sequence (P25774 115-331): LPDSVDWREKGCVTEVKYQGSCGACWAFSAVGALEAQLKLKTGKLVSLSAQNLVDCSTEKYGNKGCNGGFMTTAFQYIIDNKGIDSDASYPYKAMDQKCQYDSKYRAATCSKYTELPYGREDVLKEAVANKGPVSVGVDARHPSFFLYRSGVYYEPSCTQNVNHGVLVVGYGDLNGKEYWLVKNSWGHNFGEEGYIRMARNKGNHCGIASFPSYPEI

Compound	Sel cat. S: Ki(cathepsin S)/Ki(calpain) ratio [1]	Sel cat. B: Ki(cathepsin B)/Ki(calpain) ratio [2]	Sel cat. K: Ki(cathepsin K)/Ki(calpain) ratio [3]	Sel cat. L: Ki(cathepsin L)/Ki(calpain) ratio [4]
N-(3-Amino-1-{[4-(methyloxy)phenyl]methyl}-2,3-dioxopropyl)-2-{3-[3-(trifluoromethyl)phenyl]-1H-pyrazol-1-yl}pyridine-3-carboxamide [Example 126]	++ (++ means a Ki(cathepsin S)/Ki(calpain) ratio of ≧100)	++ (++ means a Ki(cathepsin B)/Ki(calpain) ratio of ≧30)	++ (++ means a Ki(cathepsin K)/Ki(calpain) ratio of ≧30)	++ (++ means a Ki(cathepsin L)/Ki(calpain) ratio of ≧50)
NC(=O)C(=O)C(Cc1ccccc1)NC(=O)c1cccnc1-n1ccc(-c2cccc3c2OCC3)n1 (centres unmarked) [Example 164, N-[3-Amino-2,3-dioxo-1-(phenylmethyl)propyl]-2-[3-(2,3-dihydro-1-benzofuran-7-yl)-1H-pyrazol-1-yl]pyridine-3-carboxamide]	++ (++ means a Ki(cathepsin S)/Ki(calpain) ratio of ≧100)	+ (+ means 10≦Ki(cathepsin B)/Ki(calpain)<30)	++ (++ means a Ki(cathepsin K)/Ki(calpain) ratio of ≧30)	++ (++ means a Ki(cathepsin L)/Ki(calpain) ratio of ≧50)
NC(=O)C(=O)[C@H](Cc1ccccc1)NC(=O)c1cccnc1-n1ccc(-c2ccccc2)n1 [Example 107, N-[(1S)-3-Amino-2,3-dioxo-1-(phenylmethyl)propyl]-2-(3-phenyl-1H-pyrazol-1-yl)pyridine-3-carboxamide]	++ (++ means a Ki(cathepsin S)/Ki(calpain) ratio of ≧100)	+ (+ means 10≦Ki(cathepsin B)/Ki(calpain)<30)	+ (+ means 10≦Ki(cathepsin K)/Ki(calpain)<30)	++ (++ means a Ki(cathepsin L)/Ki(calpain) ratio of ≧50)
CS(=O)(=O)Nc1cnc(-n2ccc(-c3ccccc3)n2)c(C(=O)NC(Cc2ccccc2)C(=O)C(N)=O)c1 (centres unmarked) [Example 158, N-[3-Amino-2,3-dioxo-1-(phenylmethyl)propyl]-5-[(methylsulfonyl)amino]-2-(3-phenyl-1H-pyrazol-1-yl)pyridine-3-carboxamide]	++ (++ means a Ki(cathepsin S)/Ki(calpain) ratio of ≧100)	++ (++ means a Ki(cathepsin B)/Ki(calpain) ratio of ≧30)	++ (++ means a Ki(cathepsin K)/Ki(calpain) ratio of ≧30)	++ (++ means a Ki(cathepsin L)/Ki(calpain) ratio of ≧50)
NC(=O)C(=O)C(Cc1ccccc1)NC(=O)c1cccnc1-n1ccc(-c2cccc(C(F)(F)F)c2Cl)n1 (centres unmarked) [Example 155, N-[3-Amino-2,3-dioxo-1-(phenylmethyl)propyl]-2-{3-[2-chloro-3-(trifluoromethyl)phenyl]-1H-pyrazol-1-yl}pyridine-3-carboxamide]	++ (++ means a Ki(cathepsin S)/Ki(calpain) ratio of ≧100)	++ (++ means a Ki(cathepsin B)/Ki(calpain) ratio of ≧30)	++ (++ means a Ki(cathepsin K)/Ki(calpain) ratio of ≧30)	++ (++ means a Ki(cathepsin L)/Ki(calpain) ratio of ≧50)
NC(=O)C(=O)C(Cc1ccccc1)NC(=O)c1cccnc1-n1ccc(-c2c(F)ccc(Cl)c2Cl)n1 (centres unmarked) [Example 120, N-[3-Amino-2,3-dioxo-1-(phenylmethyl)propyl]-2-[3-(2,3-dichloro-6-fluorophenyl)-1H-pyrazol-1-yl]pyridine-3-carboxamide]	++ (++ means a Ki(cathepsin S)/Ki(calpain) ratio of ≧100)	++ (++ means a Ki(cathepsin B)/Ki(calpain) ratio of ≧30)	++ (++ means a Ki(cathepsin K)/Ki(calpain) ratio of ≧30)	+ (+ means 30≦Ki(cathepsin L)/Ki(calpain)<50)
COc1ccc(-c2ccn(-c3ncccc3C(=O)NC(Cc3ccccc3)C(=O)C(N)=O)n2)cc1 (centres unmarked) [Example 48, N-(3-Amino-1-benzyl-2,3-dioxopropyl)-2-[3-(4-methoxyphenyl)-1H-pyrazol-1-yl]nicotinamide]	++ (++ means a Ki(cathepsin S)/Ki(calpain) ratio of ≧100)	+ (+ means 10≦Ki(cathepsin B)/Ki(calpain)<30)	+ (+ means 10≦Ki(cathepsin K)/Ki(calpain)<30)	++ (++ means a Ki(cathepsin L)/Ki(calpain) ratio of ≧50)
NC(=O)C(=O)C(Cc1ccc(OC(F)(F)F)cc1)NC(=O)c1cccnc1-n1ccc(-c2ccccc2)n1 (centres unmarked) [Example 133, N-[3-Amino-2,3-dioxo-1-({4-[(trifluoromethyl)oxy]phenyl}methyl)propyl]-2-(3-phenyl-1H-pyrazol-1-yl)pyridine-3-carboxamide]	++ (++ means a Ki(cathepsin S)/Ki(calpain) ratio of ≧100)	++ (++ means a Ki(cathepsin B)/Ki(calpain) ratio of ≧30)	++ (++ means a Ki(cathepsin K)/Ki(calpain) ratio of ≧30)	++ (++ means a Ki(cathepsin L)/Ki(calpain) ratio of ≧50)
NC(=O)C(=O)C(Cc1ccccc1)NC(=O)c1cccnc1-n1ccc(-c2cc(Cl)ccc2Cl)n1 (centres unmarked) [Example 112, N-[3-Amino-2,3-dioxo-1-(phenylmethyl)propyl]-2-[3-(2,5-dichlorophenyl)-1H-pyrazol-1-yl]pyridine-3-carboxamide]	++ (++ means a Ki(cathepsin S)/Ki(calpain) ratio of ≧100)	++ (++ means a Ki(cathepsin B)/Ki(calpain) ratio of ≧30)	++ (++ means a Ki(cathepsin K)/Ki(calpain) ratio of ≧30)	++ (++ means a Ki(cathepsin L)/Ki(calpain) ratio of ≧50)
NC(=O)C(=O)C(Cc1ccc(F)cc1)NC(=O)c1cccnc1-n1ccc(-c2ccccc2OC(F)(F)F)n1 (centres unmarked) [Example 152, N-{3-Amino-1-[(4-fluorophenyl)methyl]-2,3-dioxopropyl}-2-(3-{2-[(trifluoromethyl)oxy]phenyl}-1H-pyrazol-1-yl)pyridine-3-carboxamide]	++ (++ means a Ki(cathepsin S)/Ki(calpain) ratio of ≧100)	++ (++ means a Ki(cathepsin B)/Ki(calpain) ratio of ≧30)	++ (++ means a Ki(cathepsin K)/Ki(calpain) ratio of ≧30)	++ (++ means a Ki(cathepsin L)/Ki(calpain) ratio of ≧50)
NC(=O)C(=O)C(Cc1ccccc1)NC(=O)c1cccnc1-n1ccc(-c2cccc(N3CCOCC3)c2)n1 (centres unmarked) [Example 58, N-(3-Amino-1-benzyl-2,3-dioxopropyl)-2-[3-(3-morpholin-4-ylphenyl)-1H-pyrazol-1-yl]nicotinamide]	++ (++ means a Ki(cathepsin S)/Ki(calpain) ratio of ≧100)	+ (+ means 10≦Ki(cathepsin B)/Ki(calpain)<30)	+ (+ means 10≦Ki(cathepsin K)/Ki(calpain)<30)	++ (++ means a Ki(cathepsin L)/Ki(calpain) ratio of ≧50)
NC(=O)C(=O)C(Cc1ccccc1)NC(=O)c1cccnc1-n1ccc(-c2c(F)cccc2F)n1 (centres unmarked) [Example 85, N-[3-Amino-2,3-dioxo-1-(phenylmethyl)propyl]-2-[3-(2,6-difluorophenyl)-1H-pyrazol-1-yl]pyridine-3-carboxamide]	++ (++ means a Ki(cathepsin S)/Ki(calpain) ratio of ≧100)	+ (+ means 10≦Ki(cathepsin B)/Ki(calpain)<30)	++ (++ means a Ki(cathepsin K)/Ki(calpain) ratio of ≧30)	++ (++ means a Ki(cathepsin L)/Ki(calpain) ratio of ≧50)
NC(=O)C(=O)C(Cc1ccccc1)NC(=O)c1cccnc1-n1ccc(-c2cccc(Cl)c2Cl)n1 (centres unmarked) [Example 115, N-[3-Amino-2,3-dioxo-1-(phenylmethyl)propyl]-2-[3-(2,3-dichlorophenyl)-1H-pyrazol-1-yl]pyridine-3-carboxamide]	++ (++ means a Ki(cathepsin S)/Ki(calpain) ratio of ≧100)	++ (++ means a Ki(cathepsin B)/Ki(calpain) ratio of ≧30)	++ (++ means a Ki(cathepsin K)/Ki(calpain) ratio of ≧30)	++ (++ means a Ki(cathepsin L)/Ki(calpain) ratio of ≧50)
NC(=O)C(=O)C(Cc1ccc(OC(F)(F)F)cc1)NC(=O)c1cccnc1-n1ccc(-c2ccc(F)cc2)n1 (centres unmarked) [Example 132, N-[3-Amino-2,3-dioxo-1-({4-[(trifluoromethyl)oxy]phenyl}methyl)propyl]-2-[3-(4-fluorophenyl)-1H-pyrazol-1-yl]pyridine-3-carboxamide]	++ (++ means a Ki(cathepsin S)/Ki(calpain) ratio of ≧100)	+ (+ means 10≦Ki(cathepsin B)/Ki(calpain)<30)	++ (++ means a Ki(cathepsin K)/Ki(calpain) ratio of ≧30)	++ (++ means a Ki(cathepsin L)/Ki(calpain) ratio of ≧50)
